# According to PubChem BioAssay (NCI):
#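 Where inhibition never reached the appropriate level, the endpoint shown equals the highest concentration tested. Otherwise, values were interpolated linearly from a five-concentration, 48-hour dose response in 96-well plates. GI50 marks 50% less growth. TGI marks complete inhibition of growth.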
# Assays:
# Assay in all cases: inhibition of tumour cell growth, NCI panel, 48 h
# [1] = tested on: NCI-H23 lung
# [2] = tested on: NCI-H460 lung
# [3] = tested on: NCI-H522 lung
# [4] = tested on: NCI/ADR-RES ovarian
# [5] = tested on: OVCAR-3 ovarian
# [6] = tested on: OVCAR-4 ovarian
# [7] = tested on: OVCAR-5 ovarian
# [8] = tested on: OVCAR-8 ovarian
# [9] = tested on: PC-3 prostate
# [10] = tested on: RPMI-8226 leukemia
# [11] = tested on: RXF 393 renal
# [12] = tested on: SF-268 CNS
# [13] = tested on: SF-295 CNS
# [14] = tested on: SF-539 CNS
# [15] = tested on: SK-MEL-2 melanoma
# [16] = tested on: SK-MEL-28 melanoma
# [17] = tested on: SK-MEL-5 melanoma
# [18] = tested on: SK-OV-3 ovarian
# [19] = tested on: SN12C renal
# [20] = tested on: SNB-19 CNS
# [21] = tested on: SNB-75 CNS
# [22] = tested on: SR leukemia
# [23] = tested on: SW-620 colon
# [24] = tested on: TK-10 renal
# [25] = tested on: U251 CNS
# [26] = tested on: UACC-257 melanoma
# [27] = tested on: UACC-62 melanoma
# [28] = tested on: UO-31 renal
structure (smiles),measurement,setting,value
C=C1C(=O)O[C@H]2[C@H]1CC/C(COC(=O)c1ccccc1)=C\CC[C@@]1(C)O[C@@H]21,GI50,[1],1.82 µM
same,TGI,[1],4.16 µM
same,GI50,[2],2.22 µM
same,TGI,[2],6.16 µM
same,GI50,[3],1.06 µM
same,TGI,[3],2.79 µM
same,GI50,[4],2.67 µM
same,TGI,[4],9.05 µM
same,GI50,[5],0.482 µM
same,TGI,[5],1.74 µM
same,GI50,[6],2.64 µM
same,TGI,[6],9.87 µM
same,GI50,[7],2 µM
same,TGI,[7],5.36 µM
same,GI50,[8],2.28 µM
same,TGI,[8],9.28 µM
same,GI50,[9],1.8 µM
same,TGI,[9],4.34 µM
same,GI50,[10],0.375 µM
same,TGI,[10],2.44 µM
same,GI50,[11],1.14 µM
same,TGI,[11],2.58 µM
same,GI50,[12],1.56 µM
same,TGI,[12],3.47 µM
same,GI50,[13],3.83 µM
same,TGI,[13],16 µM
same,GI50,[14],0.662 µM
same,TGI,[14],2.1 µM
same,GI50,[15],1.94 µM
same,TGI,[15],4.02 µM
same,GI50,[16],1.74 µM
same,TGI,[16],3.71 µM
same,GI50,[17],1.63 µM
same,TGI,[17],3.03 µM
same,GI50,[18],11.8 µM
same,TGI,[18],24 µM
same,GI50,[19],1.39 µM
same,TGI,[19],3.26 µM
same,GI50,[20],2.61 µM
same,TGI,[20],11.6 µM
same,GI50,[21],5.7 µM
same,TGI,[21],18.7 µM
same,GI50,[22],0.35 µM
same,TGI,[22],86.8 µM
same,GI50,[23],0.407 µM
same,TGI,[23],1.75 µM
same,GI50,[24],2.03 µM
same,TGI,[24],3.98 µM
same,GI50,[25],1.67 µM
same,TGI,[25],3.37 µM
same,GI50,[26],1.51 µM
same,TGI,[26],3.37 µM
same,GI50,[27],1.44 µM
same,TGI,[27],3.13 µM
same,GI50,[28],1.2 µM
same,TGI,[28],2.49 µM
